{"source": "patent US20250345378A1", "about": "(priority 2022, published 2025)", "molecules": {"B1": {"name": "Colicin 10 (protein)", "chain": "MDKVTDNSPDVESTESTEGSFPTVGVDTGDTITATLATGTENVGGGGGAFGGASESSAAIHATAKWSTAQLKKHQAEQAARAAAAEAALAKAKSQRDALTQRLKDIVNDALRANAARSPSVTDLAHANNMAMQAEAERLRLAKAEQKAREEAEAAEKALREAERQRDEIARQQAETAHLLAMAEAAEAEKNRQDSLDEEHRAVEVAEKKLAEAKAELAKAESDVQSKQAIVSRVAGELENAQKSVDVKVTGFPGWRDVQKKLERQLQDKKNEYSSVTNALNSAVSIRDAKKTEVQNAEIKLKEAKDALEKSQVKDSVDTMVGFYQYITEQYGEKYSRIAQDLAEKAKGSKFNSVDEALAAFEKYKNVLDKKFSKVDRDDIFNALESITYDEWAKHLEKISRALKVTGYLSFGYDVWDGTLKGLKTGDWKPLFVTLEKSAVDFGVAKIVALMFSFIVGAPLGFWGIAIITGIVSSYIGDDELNKLNELLGI", "modifications": "Colicin 10"}, "B2": {"name": "Colicin U (protein)", "chain": "MPGFNYGGHGDGTGWSSERGDGPAPGGGMQGNGGGHSGNNDSGSNSVSQQISAIQNDQKLKQKVVNMLIAARKMNPDAKMILGSIAPSGVMQVTIEGVTSTQARQLGLGGLVMGYNASGVIGAVGEIDTGHRLNASGASTPGSETSVDSFVNGQKPAEEWHAVAKDSWTGAGPVNTGLVNNAIKSVRIIKKGYVTGVLTPEEVMNKAEYKAMRQAFDSLPLAKQGEAVRQIVAAWSLAYQDFPVNLKKEMGRVTERIVDAINLALILNQTESRLSESQKNVDVANQIISDTVKAINDVNKKIAEKRNQQVSLTDLMNKKQKEVEDLKKIFKNHSYHRIRDAQREYDDARNKYALLASDINALQAQVSGLTARKQQAEQNKAAAEKAKADAAAKAAAEKAAAEAKAKAEAEKARKEAEEKANDEKAVLTKASEIIISVGDKAGEYLGDKYKVLSREIADNIKNFQGKTIRSYDEAMASVNKLMANPDLKINAADRDAIVNAWKAFDAEDMGNKFAALGKTFKAADYVMKANNVREKSIEGYQTGNWGPLMLEIESWVLSGIASAVALSFFSAIFGTFAMLGVFSTSLAGILAVILAGLVGALIDDNFVDKLNNEIIRPAY", "modifications": "Colicin U"}}, "key": {"[1]": {"test_system": "E. coli strain ATCC 700928", "experiment": "Mouse UTI model, CK570 IU or IV: bacterial burden in kidneys, bladder, urine", "assay_type": "in vivo, C3H/OuJ mice", "conditions": "each tissue, all timepoints", "text": "The vehicle used in this study was 1×TBS. […] C3H/OuJ female mice, aged approximately 8 weeks and weighing 21 to 24 grams, were used in this study. Mice were housed with 1 to 5 animals per cage and were provided food (5P76 Prolab isopro irradiated lab diet) and water ad libitum. […] Each mouse was then placed on a board, ventral side up, with the nose inserted into a nose cone supplying isoflurane. The lower abdomen was gently massaged to expel any urine in the bladder. […] For IV administration, mice were manually restrained in a restrainer device, and study treatment was administered via the lateral tail vein. […] For IU administration, the same method was used as for the original administration of E. coli. A dose volume of 50 μL was used for IU administration. […] All CFU data were log-transformed."}, "[2]": {"test_system": "88 urinary tract infection E. coli isolates", "assay_type": "cell-based, Escherichia coli", "description": "(§1) Phage cocktail CK618 was tested in combination with and alongside antibiotics against two isolate panels. The first assay used a panel of 88 contemporaneous urinary tract infection (UTI) isolates from North America, Europe, Latin America, and Asia. […] The second assay used a panel made up of a 300-strain clinical isolate panel (Table 14) with an additional 4 strains of interest. […] Four of the same SOC antibiotics tested against the 88-isolate panel were tested against this panel. The non-SOC antibiotics were not included due to their limited use in clinical settings, and nitrofurantoin was not included due to the low probability of resistance to this drug.\n(§2) For both isolate panels, antibiotic concentrations tested were determined by using Clinical and Laboratory Standards Institute (CLSI) or European Committee on Antimicrobial Susceptibility Testing (EUCAST) breakpoints at concentrations that kill susceptible isolates but allow intermediate or resistant isolates to grow in the standard AST microdilution assay (Table 17).\n(§3) The composition of the proposed Phase 2 CRISPR-enhanced bacteriophage (CRISPR-phage, hereafter termed ‘crPhage’) cocktail (CK618) has been updated from the CK570 to include six bacteriophages as compared to three bacteriophages in CK570. Bacteriophage cocktail CK618, was prepared such that all bacteriophages had equivalent titers in the final cocktail. The cocktail was then mixed with bacteria to obtain final titers of 1×10^6 plaque-forming unit (PFU)/mL/phage for the cocktail and 1×10^5 colony-forming unit (CFU)/mL for the bacteria, resulting in a multiplicity of infection (MOI) of 10 for each bacteriophage in a sample. Briefly, 5 μl of each sample (CK618 alone, CK618 and antibiotics, antibiotics alone, or medium alone) was added to 5 μl of optical density (OD)-normalized bacterial isolate and 40 μl LB medium. Reactions were incubated at 37° C. with shaking and OD measurements were taken each hour for 20 hours.\n(§4) Host range percentage is the percent of isolates that responded to treatment of antibiotics or CK618. In the case of the 88-isolate panel, results were analyzed on the complete panel as well as the subset of classified as multidrug-resistant (MDR) (n=21) and beta-lactam-resistant (n=31).\n(§5) The first assay used a panel of 88 contemporaneous isolates. Twenty-one of those strains are classified as MDR, with resistance to 3 or more antibiotic classes. […] The second assay used the panel made up of a 300-strain clinical isolate panel with an additional 4 strains of interest.\n(§6) Antibiotic concentrations tested were determined by using CLSI or EUCAST breakpoints at concentrations that kill susceptible strains but allow intermediate or resistant strains to grow in the standard AST microdilution assay (Table 27). LBP-EC01 v.2 was combined with bacteria resulting in a MO of 10 for each bacteriophage in a sample. In the case of the 88-isolate panel, results were analyzed on the complete panel as well as the subset of isolates classified as multidrug-resistant (MDR) (n=21) and beta-lactam-resistant (n=31)."}, "[3]": {"test_system": "304 E. coli clinical isolates", "assay_type": "cell-based, Escherichia coli", "conditions": "304-isolate panel", "description": "as §1, §2, §3, §4, §5, §6"}, "E. coli (ATCC 700928)": {"test_system": "E. coli (ATCC 700928)", "experiment": "Mouse UTI model, CK618 with TMP/SMX vs single agents and Phase 1b LBP-EC01 (Study 21-LOC-035)", "assay_type": "in vivo, C3H/OuJ mice", "conditions": "BID IV at 48, 54, 72, 78, 96 hours p.i.", "description": "For the LBP-EC01 from the Phase 1b study treatment, animals received the Phase 1 Clinical Trial Material. Bactrim was formulated at a concentration of 6.3 mg/mL."}, "E. coli strain b3370": {"test_system": "E. coli strain b3370", "experiment": "Neutropenic thigh model, Colicin 10 and Colicin U (Study 23-END-056)", "assay_type": "in vivo, ICR mouse", "conditions": "4 h and 7 h; 295 nM Colicin 10, 29.5 nM Colicin U", "description": "Study 23-END-056 was performed to evaluate the statistical difference between Control and Colicin treatment and sustained reduction of bacteria burden to LOD with colicin treatment in an ICR mouse model (FIG. 51). Specifically, the efficacy of 29.5 nM Colicin U, and combination therapy of both of 295 nM Colicin 10 & 29.5 nM Colicin U were evaluated in an ICR mouse model compared with no treatment (Table 40 and FIG. 52). In these experiments, due to high endotoxin, Colicin U was diluted 1:10 more than Colicin 10. At the 4 h and 7 h time points, treatment with 295 nM Colicin 10 lowered CFU, whereas no change was seen after treatment with 29.5 Colicin U."}, "[4]": {"test_system": "E. coli strains b3411 and b3370", "experiment": "In vitro CFU reduction by purified colicins", "assay_type": "cell-based, Escherichia coli", "conditions": "~30 min, then regrowth", "description": "Colicins produced an immediate significant reduction of CFU/mL (˜30 min) after adding colicins before bacterial regrowth."}}, "note": "Read-outs that look alike come from different tables or passages of the source."}
{"molecule": "O=C(O)c1cn(C2CC2)c2cc(N3CCNCC3)c(F)cc2c1=O", "note": "[Ciprofloxacin]", "values": [{"measurement": "bacterial burden, positive control", "setting": "[1]", "value": "significantly reduced bacterial burden to the LOD in each tissue"}]}
{"molecule": "Trimethoprim/Sulfamethoxazole [TMP/SXT]", "values": [{"measurement": "Host Range % on Beta-lactam-Resistant Subset (n = 31), Combination: Antibiotic + CK618 v.2", "setting": "[2]; 88-isolate panel", "value": 83.9, "unit": "%"}, {"measurement": "Host Range % on Beta-lactam-Resistant Subset (n = 31), Single agent treatment", "setting": "[2]; 88-isolate panel", "value": 25.8, "unit": "%"}, {"measurement": "Host Range % on MDR Subset (n = 21), Combination: Antibiotic + CK618 v.2", "setting": "[2]; 88-isolate panel", "value": 82.5, "unit": "%"}, {"measurement": "Host Range % on MDR Subset (n = 21), Single agent treatment", "setting": "[2]; 88-isolate panel", "value": 19.0, "unit": "%"}, {"measurement": "Host Range % on all Strains (n = 88), Single agent treatment", "setting": "[2]; antibiotic at breakpoint concentration (Table 17), cocktail 1 × 10^6 PFU/ml per bacteriophage, MOI 10", "value": 42.8, "unit": "%"}, {"measurement": "Host Range % on all Strains (n = 88), Combination: Antibiotic + CK618 v.2", "setting": "[2]; antibiotic at breakpoint concentration plus cocktail 1 × 10^6 PFU/ml per bacteriophage", "value": 85.6, "unit": "%"}, {"measurement": "Host range % on MDR subset (n = 93), Combination: Antibiotic + LBP-CK618", "setting": "[3]", "value": 75.3, "unit": "%"}, {"measurement": "Host range % on MDR subset (n = 93), Single agent treatment", "setting": "[3]", "value": 17.2, "unit": "%"}, {"measurement": "Host range % on beta-lactam-resistant subset (n = 91), Combination: Antibiotic + LBP-CK618", "setting": "[3]", "value": 78.0, "unit": "%"}, {"measurement": "Host range % on beta-lactam-resistant subset (n = 91), Single agent treatment", "setting": "[3]", "value": 29.7, "unit": "%"}, {"measurement": "Host Range % on MDR Subset (n = 93), Combination Antibiotic + LBP-EC01 v.2", "setting": "[3]; MDR subset, antibiotic combined with LBP-EC01 v.2", "value": 75.3, "unit": "%"}, {"measurement": "Host range % on MDR subset (n = 93), Single agent treatment", "setting": "[3]; MDR subset, single agent", "value": 17.2, "unit": "%"}, {"measurement": "Host Range % on all Strains (n = 304), Combination: Antibiotic + LBP-EC01 v.2", "setting": "[3]; all strains, antibiotic combined with LBP-EC01 v.2", "value": 81.9, "unit": "%"}, {"measurement": "Host Range % on all Strains (n = 304), Single agent treatment", "setting": "[3]; all strains, single agent", "value": 46.4, "unit": "%"}, {"measurement": "Host Range % on Beta-lactam-Resistant Subset (n = 91), Combination: Antibiotic + LBP-EC01 v.2", "setting": "[3]; beta-lactam-resistant subset, antibiotic combined with LBP-EC01 v.2", "value": 78.0, "unit": "%"}, {"measurement": "Host range % on beta-lactam-resistant subset (n = 91), Single agent treatment", "setting": "[3]; beta-lactam-resistant subset, single agent", "value": 29.7, "unit": "%"}, {"measurement": "bacterial burden in bladder relative to vehicle and LBP-EC01 from the Phase 1b study, monotherapy", "setting": "E. coli (ATCC 700928)", "value": "significant decrease in bacterial burden"}]}
{"molecule": "B1", "values": [{"measurement": "CFU in mouse thigh compared with no treatment", "setting": "E. coli strain b3370", "value": "lowered CFU"}, {"measurement": "CFU reduction after adding colicins", "setting": "[4]", "value": "CFU reduction was observed"}]}
{"molecule": "B2", "values": [{"measurement": "CFU in mouse thigh compared with no treatment", "setting": "E. coli strain b3370", "value": "no change"}, {"measurement": "CFU reduction after adding colicins", "setting": "[4]", "value": "CFU reduction was observed"}]}
